{"source": "patent US7166622B2", "about": "“Substituted phenylsulfonamide inhibitors of beta amyloid production” (Wyeth, priority 2002, dated 2007)", "key": {"beta amyloid production": {"tested_on": "beta amyloid production", "experiment": "Repressor Release Assay (RRA)", "format": "cell-based", "details": "luciferase activity over diluent control, read-out: APPI Fold Increase; for fold induction at 10 µg/mL: Conc 10 μg/ml", "outline": "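Read-out is luciferase luminescence (RLU) after 36-48 h duplicate compound exposure of transfected CHO-K1 cells. These cells carry transiently introduced APP-lacI and pRSVO-luc DNA. Diluent control was 25 mM Hepes/1% DMSO; toxicity recorded as binary score (1 non-toxic, 0 toxic).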"}, "CHO-K1 cells": {"tested_on": "CHO-K1 cells", "experiment": "Toxicity in RRA (loss of luciferase signal)", "details": "toxicity = loss of signal (<0.75 fold increase)", "description": "The beta amyloid inhibitory activity of the compounds of the present invention was determined using the Repressor Release Assay (RRA).\n“Fold Increase” refers to the amount of luciferase activity (measured in relative light units) over diluent control. “SEM” refers to the standard error of the mean for fold increase."}}}
{"smiles": "C=CCC(O)[C@@H](NS(=O)(=O)c1ccc(F)cc1)[C@@H](C)CC", "note": "(stereo partly drawn) [Example 134, 4-fluoro-N-{(1S)-2-hydroxy-1-[(1S)-1-methylpropyl]-4-pentenyl}benzenesulfonamide]", "values": [{"measurement": "fold induction at 3 µg/mL", "setting": "beta amyloid production; Conc 3 μg/ml", "result": 1.5}, {"measurement": "fold induction at 10 µg/mL", "setting": "beta amyloid production", "result": 3}, {"measurement": "(%)APPI Toxicity", "setting": "CHO-K1 cells; Conc 3 μg/ml", "result": "1 (1=non-toxic)"}, {"measurement": "(%)APPI Toxicity", "setting": "CHO-K1 cells; Conc 10 μg/ml", "result": "1 (1=non-toxic)"}]}
{"smiles": "CCC(O)[C@@H](NS(=O)(=O)c1ccc(F)cc1)[C@@H](C)CC", "note": "(stereo partly drawn) [Example 135, 4-fluoro-N-{(1S)-2-hydroxy-1-[(1S)-1-methylpropyl]butyl}benzenesulfonamide]", "values": [{"measurement": "fold induction at 10 µg/mL", "setting": "beta amyloid production", "result": 1.91}, {"measurement": "(%)APPI Toxicity", "setting": "CHO-K1 cells; Conc 10 μg/ml", "result": "1 (1=non-toxic)"}]}
{"smiles": "CC[C@H](C)[C@H](NS(=O)(=O)c1ccc(F)cc1)C(O)c1ccc(Cl)cc1", "note": "(stereo partly drawn) [Example 136, N-{(1S,2S)-1-[(4-chlorophenyl)(hydroxy)methyl]-2-methylbutyl}-4-fluorobenzenesulfonamide]", "values": [{"measurement": "fold induction at 10 µg/mL", "setting": "beta amyloid production", "result": 3.04}, {"measurement": "(%)APPI Toxicity", "setting": "CHO-K1 cells; Conc 10 μg/ml", "result": "1 (1=non-toxic)"}]}
{"smiles": "CC[C@H](C)[C@H](NS(=O)(=O)c1ccc(F)cc1)C(O)C=C(C)C", "note": "(stereo partly drawn) [Example 137, 4-fluoro-N-{(1S)-2-hydroxy-4-methyl 1-[(1S)-1-methylpropyl]-3-pentenyl}benzenesulfonamide]", "values": [{"measurement": "fold induction at 10 µg/mL", "setting": "beta amyloid production", "result": 1.61}, {"measurement": "(%)APPI Toxicity", "setting": "CHO-K1 cells; Conc 10 μg/ml", "result": "1 (1=non-toxic)"}]}
{"smiles": "C=C(C)C(O)[C@@H](NS(=O)(=O)c1ccc(F)cc1)[C@@H](C)CC", "note": "(stereo partly drawn) [Example 138, 4-fluoro-N-{(1S)-2-hydroxy-3-methyl-1-[(1S)-1-methylpropyl]-3-butenyl}benzenesulfonamide]", "values": [{"measurement": "fold induction at 10 µg/mL", "setting": "beta amyloid production", "result": 1.57}, {"measurement": "(%)APPI Toxicity", "setting": "CHO-K1 cells; Conc 10 μg/ml", "result": "1 (1=non-toxic)"}]}
{"smiles": "CC[C@H](C)[C@H](NS(=O)(=O)c1ccc(F)cc1)C(O)c1ccc(OC)cc1", "note": "(stereo partly drawn) [Example 139, 4-fluoro-N-{(1S,2S)-1-[hydroxy(4-methoxyphenyl)methyl]-2-methylbutyl}benzenesulfonamide]", "values": [{"measurement": "fold induction at 10 µg/mL", "setting": "beta amyloid production", "result": 2.12}, {"measurement": "(%)APPI Toxicity", "setting": "CHO-K1 cells; Conc 10 μg/ml", "result": "1 (1=non-toxic)"}]}
{"smiles": "CC[C@H](C)[C@H](NS(=O)(=O)c1ccc(F)cc1)C(O)CCC1OCCCO1", "note": "(stereo partly drawn) [Example 140, N-{(1S)-4-(1,3-dioxan-2-yl)-2-hydroxy-1-[(1S)-1-methylpropyl]butyl}-4-fluorobenzenesulfonamide]", "values": [{"measurement": "fold induction at 10 µg/mL", "setting": "beta amyloid production", "result": 1.52}, {"measurement": "(%)APPI Toxicity", "setting": "CHO-K1 cells; Conc 10 μg/ml", "result": "1 (1=non-toxic)"}]}
{"smiles": "C=CCCC(O)[C@@H](NS(=O)(=O)c1ccc(F)cc1)[C@@H](C)CC", "note": "(stereo partly drawn) [Example 141, 4-fluoro-N-{(1S)-2-hydroxy-1-[(1S)-1-methylpropyl]-5-hexenyl}benzenesulfonamide]", "values": [{"measurement": "fold induction at 10 µg/mL", "setting": "beta amyloid production", "result": 1.79}, {"measurement": "(%)APPI Toxicity", "setting": "CHO-K1 cells; Conc 10 μg/ml", "result": "1 (1=non-toxic)"}]}
{"smiles": "CC[C@H](C)[C@H](NS(=O)(=O)c1ccc(F)cc1)C(O)c1ccc(SC)cc1", "note": "(stereo partly drawn) [Example 142, 4-fluoro-N-((1S,2 S)-1-{hydroxy[4-(methylsulfanyl)phenyl]methyl}-2-methylbutyl)benzenesulfonamide]", "values": [{"measurement": "fold induction at 10 µg/mL", "setting": "beta amyloid production", "result": 2.71}, {"measurement": "(%)APPI Toxicity", "setting": "CHO-K1 cells; Conc 10 μg/ml", "result": "1 (1=non-toxic)"}]}
{"smiles": "CC[C@H](C)[C@H](NS(=O)(=O)c1ccc(F)cc1)C(O)c1ccc(N(C)C)cc1", "note": "(stereo partly drawn) [Example 143, N-{(1S,2S)-1-[[4-(dimethylamino)phenyl](hydroxy)methyl]-2-methylbutyl}-4-fluorobenzenesulfonamide]", "values": [{"measurement": "fold induction at 10 µg/mL", "setting": "beta amyloid production", "result": 5.72}, {"measurement": "(%)APPI Toxicity", "setting": "CHO-K1 cells; Conc 10 μg/ml", "result": "1 (1=non-toxic)"}]}
{"smiles": "CC[C@H](C)[C@H](NS(=O)(=O)c1ccc(F)cc1)C(O)c1cccc2ccccc12", "note": "(stereo partly drawn) [Example 144, 4-fluoro-N-{(1S,2S)-1-[hydroxy(1-naphthyl)methyl]-2-methylbutyl}benzenesulfonamide]", "values": [{"measurement": "fold induction at 10 µg/mL", "setting": "beta amyloid production", "result": 1.69}, {"measurement": "(%)APPI Toxicity", "setting": "CHO-K1 cells; Conc 10 μg/ml", "result": "1 (1=non-toxic)"}]}
{"smiles": "CC[C@H](C)[C@H](NS(=O)(=O)c1ccc(Br)cc1)C(C)O", "note": "(stereo partly drawn) [Example 145, 4-bromo-N-[(1S,2S)-1-(1-hydroxyethyl)-2-methylbutyl]benzenesulfonamide]", "values": [{"measurement": "fold induction at 10 µg/mL", "setting": "beta amyloid production", "result": 3.9}, {"measurement": "(%)APPI Toxicity", "setting": "CHO-K1 cells; Conc 10 μg/ml", "result": "1 (1=non-toxic)"}]}
